Laboratory results from patent US20260185056A1, “TRIPLE TISSUE CULTURE FUSION” (IMBA - INSTITUT FÜR MOLEKULARE BIOTECHNOLOGIE GMBH, priority 2022, published 2026).
Where “and” joins values, the source holds several entries; their conditions need not be identical. Identical values can stand only once. Counter-ions that a name gives are not always drawn.

Key:
Format in all cases: cell-based, human
[1] = test system: ventral midbrain organoids; assay: CHIR dose curve (Wnt activation) for midbrain induction in ventral midbrain organoids (qPCR OTX2, FOXA2, TH)
Experimental: FIG. 2A-D: qPCR analysis of markers of ventral midbrain of the dose curving experiment to generate ventral midbrain organoids. Two separate dose curving experiments were performed, where first the correct dosage of sonic hedgehog activation was tested (FIG. 2A, floor plate marker FOXA2). Secondly, we performed qPCR to test for appropriate concentrations of posteriorization using Wnt activation. Dopaminergic neurons are born in the very ventral floor plate of the posterior midbrain, next to the midbrain-hindbrain boundary, thus the Forebrain and Midbrain marker OTX2 should still be expressed, whereas the hindbrain is OTX2 negative. We found a concentration of 0.8-1 μM sufficient to introduce midbrain (FIG. 2B), while the floor plate marker FOXA2 was still expressed (FIG. 2C). qPCR for the dopaminergic marker TH (Tyrosine hydroxylase, the rate-limiting enzyme for dopamine synthesis) confirmed this concentration of Wnt activation, with a sharp drop of TH expression starting at 1.2 μM CHIR (FIG. 2D).
All qPCR data are relative to the expression of TBP.
For each condition, 6-8 organoids were collected at indicated time points into 2 ml RNAse-free tubes. RNA was extracted using the Rneasy mini kit (Qiagen). […]
Quantification was performed in excel by calculating ΔCt relative to TBP. […]

[2] = test system: VM, striatal and cortical neurons of fused organoids; assay: Chronic cocaine treatment of fused organoids: GCAMP6S calcium imaging; conditions: for calcium event frequency: VM, striatal and cortical patterned neurons
Experimental: (§1) A, Schematic for the treatment of fused organoids with cocaine. […] Functional, morphological and transcriptional analysis was performed on day 130. B, Representative images of dopaminergic (TH^+) axons in striatal and cortical tissue in control, chronic and withdrawal fused organoids. C, Schematic for the extraction of varicosity density and varicosity diameter in dopaminergic axons. D, Quantifications of TH^+ varicosity density in striatal and cortical tissue. N=6-8 organoids per condition, 39-49 axons. E, Measurement of varicosity diameter (axon average) in striatal and cortical tissue. N=6-8 organoids, 36-47 axons per condition and 1055|1552|1347 (striatal) and 923|1063|1340 (cortical) boutons measured. F, Schematic of the parameters' frequency and duration from GCAMP traces after extraction with CaImAn. G-H, fused organoids with GCAMP6S expression in either VM, striatal or cortical tissue were recorded on day 130 in control, chronic and withdrawal conditions (10-21 organoids per condition). […] H, Analysis of calcium event frequency of striatal (n=248|245|680) and cortical (175|936|885) neurons in control, chronic and withdrawal conditions. I-J, Volcano plot comparing bulk RNAseq data of day 130 forebrain organoids chronic versus control (I) and withdrawal versus control (J) (n=6-9 organoids of 2-3 batches). […] Samples were analyzed with one-way ANOVA followed by unpaired Mann-Whitney test.
(§2) A, Representative 130 day old GCAMP recordings of fused organoids with Syn-GCAMP expression either in the cortical, or striatal, or VM tissue in control (left), chronic (middle) and withdrawal (right) condition. […] D, Analysis of calcium event frequency of VM (n=100|278|115) neurons in control, chronic and withdrawal conditions. […] Samples were analyzed with one-way ANOVA followed by unpaired Mann-Whitney test (C, D). E-F, Volcano plots of differentially expressed genes in VM tissue in chronic versus control I and withdrawal versus control (F). G-I, GSEA analysis of three GO terms associated with neural circuit formation (Dendrite Development, Axon Development and Synapse Organization) in forebrain chronic vs control (top) and forebrain withdrawal versus control (bottom).
Organoids were grown until […]. GCAMP was recorded using an Olympus Spinning Disk (see Microscopy section). In brief, 20× magnification and an exposure time of 65 ms per frame (continuous recording) were used for up to 6.5 min of continuous recording. For trace extraction, recordings were scaled down from 2048×2048 to 512×512 pixels. Trace extraction was performed using the opensource software package CaImAn (Flatiron Institute).
(§3) Here, we used the neural multi-tissue organoids to test the effects of cocaine on the establishment of the dopaminergic system. Cocaine is a dopamine reuptake inhibitor, which binds to the dopamine transporter (DAT) and inhibits the reuptake of dopamine after release and thus increases the available levels of dopamine to target cells. While the effects of cocaine on the adult brain are relatively well understood, not much is known about the effects of cocaine on the development of the CNS-predominantly because of the lack of an effective model system. We tested the effects of chronic cocaine exposure and its potential effect on the establishment of the dopaminergic system. […] We chronically treated fused organoids with cocaine from day 40 until day 130 and generated a withdrawal condition which was not exposed to cocaine from day 105 onwards (FIG. 17A).
In vivo, cocaine exposure has been associated with changes in neural activity.

[3] = test system: forebrain and VM tissue of fused organoids; assay: Chronic cocaine treatment of fused organoids: bulk RNAseq; conditions: for transcriptional change (bulk RNAseq): day 130
Experimental: as §1, §2, §3

[4] = test system: dopaminergic (TH+) axons in striatal and cortical tissue of fused organoids; assay: Chronic cocaine treatment of fused organoids: TH+ varicosity density and diameter; conditions: for density of TH+ varicosities on axons / diameter of TH+ varicosities: chronic 0.7 μM, vs control; for density of TH+ varicosities on axons: 1 h every 3 days, day 40-130; for diameter of TH+ varicosities: day 130
Experimental: A, Schematic for the treatment of fused organoids with cocaine. […] Functional, morphological and transcriptional analysis was performed on day 130. B, Representative images of dopaminergic (TH^+) axons in striatal and cortical tissue in control, chronic and withdrawal fused organoids. C, Schematic for the extraction of varicosity density and varicosity diameter in dopaminergic axons. D, Quantifications of TH^+ varicosity density in striatal and cortical tissue. N=6-8 organoids per condition, 39-49 axons. E, Measurement of varicosity diameter (axon average) in striatal and cortical tissue. N=6-8 organoids, 36-47 axons per condition and 1055|1552|1347 (striatal) and 923|1063|1340 (cortical) boutons measured. F, Schematic of the parameters' frequency and duration from GCAMP traces after extraction with CaImAn. G-H, fused organoids with GCAMP6S expression in either VM, striatal or cortical tissue were recorded on day 130 in control, chronic and withdrawal conditions (10-21 organoids per condition). […] 1776|2144|4254 individual calcium events (striatal) and 1437|6931|8000 individual calcium events (cortical). H, Analysis of calcium event frequency of striatal (n=248|245|680) and cortical (175|936|885) neurons in control, chronic and withdrawal conditions. I-J, Volcano plot comparing bulk RNAseq data of day 130 forebrain organoids chronic versus control (I) and withdrawal versus control (J) (n=6-9 organoids of 2-3 batches). […] Samples were analyzed with one-way ANOVA followed by unpaired Mann-Whitney test.
2Eci tissue clearing was performed as previously described (Masselink & Reumann, et al., Development 146, 2019). In brief, organoids were fixed with 4% formaldehyde in PBS for 4 h at RT. For 3D immunohistochemistry, PBS-TxDB was prepared: 10×PBS, 5% BSA and 2% TX100 were pre-mixed and filled up with distilled water to achieve approx. 70% of aimed volume (e.g. for 11 of PBS-TxDB, 100 ml of 10×PBS, 50 g BSA and 20 ml TX100 were used and filled up to 700 ml with distilled water. 20% DMSO was then added slowly under heavy stirring-rapid addition of DMSO may result in irreversible BSA aggregation. The solution was filled up to 100% with distilled water and sterile filtered. PBS-TxDB is stable at RT for at least several weeks, or at 4° C. for up to a year.
Organoids were blotted/permeabilized on a rotor or shaking plate for 1-2 days in 10 ml PBS-TxDB at RT. Organoids (dependent on the size, between 3 and 6) were then transferred into 2 ml Eppendorf tubes containing primary antibody solution in PBS-TxDB (between 500 μl to 1 ml) and transferred to a rotor or shaking plate for 5 days. Organoids were then washed in 10 ml PBS-TxDB for 2 days (1× rinse, 3×PBS-TxDB exchange) and the same steps were repeated for secondaries. After washing off the residual secondaries, organoids were washed in PBS for 1 h and then fixed in 4% Formaldehyde solution for 30 min-2 h. Organoids were then ready to be dehydrated in a 1-Propanol gradient (30%, 50%, 70%, 100%, 100%, 4-8 h per step). As no endogenous fluorescence had to be maintained, pH adjustment of the 1-Propanol was skipped. After dehydration, organoids were transferred into Ethyl Cinnamate and were ready for imaging as soon as completely transparent (1-3 h or overnight at RT). Cleared organoids were stored at room temperature and should not be transferred to 4° C., as Ethyl Cinnamate crystallizes out at lower temperatures. […]

In the case of `Cc1cnc(-c2cnc(NCCNc3ccc(C#N)cn3)nc2-c2ccc(Cl)cc2Cl)[nH]1` [CHIR, 6-[[2-[[4-(2,4-dichlorophenyl)-5-(5-methyl-1H-imidazol-2-yl)-2-pyrimidinyl]amino]ethyl]amino]-3-pyridinecarbonitrile], the “concentration sufficient for midbrain induction” value ([1]; OTX2, FOXA2 and TH still expressed (qPCR)) is reported as 0.8 to 1 µM and 1 µM and the “concentration at which sharp drop of TH expression starts” value ([1]; qPCR, relative to TBP) is reported as no less than 1.2 µM.

`COC(=O)[C@H]1[C@@H](OC(=O)c2ccccc2)C[C@@H]2CC[C@H]1N2C` [cocaine hydrochloride] was tested, and the calcium event duration ([2]; VM neurons, chronic condition, day 130) was “decrease”, the calcium event duration ([2]; VM neurons, cocaine withdrawal) was “without recovery” and the calcium event frequency ([2]; cocaine treated vs control) was “fewer events per minute”. For the same compound, the calcium event frequency ([2]; withdrawal condition) was “only partially recover”, the calcium event duration ([2]; cortical patterned neurons, chronic condition, day 130, vs control, hydrochloride) was “increase” and the calcium event duration ([2]; cortical patterned neurons, chronic condition, day 130, vs control, listed as cocaine, hydrochloride) was “significant increase”. The calcium event duration ([2]; striatal neurons, chronic condition, day 130, vs control, hydrochloride) was “significant decrease”, the calcium event duration ([2]; striatal neurons, chronic condition, day 130, vs control, listed as cocaine, hydrochloride) was “significantly shorter” and the calcium event duration ([2]; withdrawal condition, striatal and cortical neurons) was “not significantly different from the chronic condition”. For the same compound, the “transcriptional change (bulk RNAseq)” value ([3]; VM tissue, chronic and withdrawal vs control) was “only little transcriptional change”, the “genes associated with interferon response (such as IFITM2 and IFITM3)” value ([3]; forebrain, chronic and withdrawal conditions) was “upregulated” and the “transcriptional change (bulk RNAseq)” value ([3]; forebrain, chronic and withdrawal conditions vs control) was “a broad list of genes was differentially expressed”. For the same compound, the “genes associated with neural circuit formation (GO term analysis)” value ([3]; forebrain, chronic and withdrawal vs control) was “downregulation”, the “GSEA of GO terms dendrite development, axon development and synapse organization” value ([3]; forebrain, chronic exposure and withdrawal vs control) was “consistently and significantly downregulated” and the “diameter of TH+ varicosities, rescue by withdrawal” value ([4]; 25-day long withdrawal, striatal and cortical tissue) was “failed to rescue”. The “density of TH+ varicosities on axons” value ([4]; cortical tissue) was “significantly increased”, the “diameter of TH+ varicosities” value ([4]; cortical tissue) was “significantly reduced” and the “density of TH+ varicosities on axons” value ([4]; striatal tissue) was “significantly increased”. For the same compound, the “diameter of TH+ varicosities” value ([4]; striatal tissue) was “significantly reduced”.
